Columns and labels:
Type in all cases: physicochemical
[1] = Release of Ibuprofen from mesoporous silica into water; details: within one minute of the mesoporous silica being added to water
Description: Fifty percent of the Ibuprofen is released into water within one minute of the mesoporous silica being added to water. This is desirable as a quicker release for an analgesic drug will result in faster relief for the individual taking the analgesic drug.

[2] = Solubility limit of Ibuprofen in CO2 (I) and CO2 (I) with 5 mol % cosolvent, by visual inspection; details: room temperature, 55±2 bar, 9 hours
Protocol: The solubility of Ibuprofen in CO2 (I) and CO2 (I) with 5 mol % of cosolvent was determined by visual inspection of sample mixtures of the solvent(s) and Ibuprofen at room temperature and 55±2 bar, and the solubility limit was considered to be reached when particles of Ibuprofen were visible.

[3] = Loading of Ibuprofen into mesoporous silica (MCM-41) from liquid carbon dioxide, adsorbed amount measured by TGA; details: for Maximum loaded amount of Ibuprofen in mesoporous silica: pure CO2 (I), 20° C., 55±2 bar
Description: The mesoporous particles were placed in a bag (fabric of polypropene, PP 3333, permeability 105 DIN, Derma AB, Sweden), which was permeable for the solvent and dissolved Ibuprofen molecules but kept the mesoporous particles in one place in the reactor (see below). The amount of mesoporous particles was 0.1 g in all experiments, while the amount of Ibuprofen was varied for different loading experiments. The particles in the bag and Ibuprofen crystals (thoroughly ground in a mortar before use) were placed in a glass beaker (400 ml), which was placed in an in-house built stainless steel reactor (1.7 L) with two sapphire glass windows. The reactor was first pressurized with carbon dioxide and thereafter 200 ml CO2 (I) or CO2 (I)+5 mol-% cosolvent was introduced into the glass beaker at 20° C. and 55±2 bar. […] After the loading period (15 minutes to 18 hours), the reactor was depressurized and the bag containing the mesoporous particles with Ibuprofen was retrieved. The samples were characterized with TGA using a TGA 7 instrument (Perkin Elmer Inc., USA). The temperature program used consisted of an initial part with a heating rate of 20° C./min from 20° C. to 95° C., followed by an isothermal pause for 60 minutes at 95° C., and finally heating from 95° C. up to 800° C. at a heating rate of 2° C./min. All TGA measurements were performed under 20 ml/min flow of N2 gas. […] The loading time and concentration of Ibuprofen in the CO2 (I) was varied in the experiments and each experiment is represented by one point in the graph in FIG. 1.

Ibuprofen released into water from mesoporous silica [1]: Fifty | Solubility limit ([2]; Solvent CO2 (I) + acetone (5 mol %)): 1.5-2.0 wt-% | Solubility limit ([2]; Solvent CO2 (I) + cyclohexane (5 mol %)): 1.0-1.5 wt-% | Solubility limit ([2]; Solvent CO2 (I) + methanol (5 mol %)): >2.0 wt-% | Solubility limit ([2]; Solvent CO2 (I)): 0.20-0.25 wt-% | Maximum adsorbed amount of Ibuprofen in the mesoporous particles ([3]; 0.34 wt-% Ibuprofen in CO2 (I) + acetone (5 mol-%)): approximately 50 mg Ibuprofen/g SiO2 | Maximum adsorbed amount of Ibuprofen in the mesoporous particles ([3]; 0.34 wt-% Ibuprofen in CO2 (I) + cyclohexane (5 mol-%)): approximately 200 mg Ibuprofen/g SiO2 | Maximum adsorbed amount of Ibuprofen in the mesoporous particles ([3]; 0.34 wt-% Ibuprofen in CO2 (I) + methanol (5 mol-%)): approximately 50 mg Ibuprofen/g SiO2 | Maximum loaded amount of Ibuprofen in mesoporous silica ([3]; Ibuprofen concentration below the solubility limit (0.04 wt-%)): much lower loading | Maximum loaded amount of Ibuprofen in mesoporous silica ([3]; solution saturated with Ibuprofen (0.34 or 0.90 wt-% nominal), 7 to 12 hours): ~300 mg Ibuprofen/g SiO2
Structure (SMILES): CC(C)Cc1ccc(C(C)C(=O)O)cc1 (stereo not shown) [Ibuprofen]

— US20110059226A1, “METHOD FOR LOADING A MOLECULE INTO A POROUS SUBSTRATE” (priority 2009, published 2011)
